Laboratory results reported in the NIST ThermoML archive (doi:10.1016/j.fluid.2018.10.006).

Settings: Fluid (supercritical or subcritical phases), Coaxial cylinder method

CCCCCC [hexane]
thermal conductivity [W/m/K]
Settings	509.85 K	510.36 K
245 kPa	–	0.0379
1000 kPa	–	0.03854
2245 kPa	–	0.04183
2715 kPa	–	0.04665
2965 kPa	0.05466	–
2970 kPa	0.05502	–
2975 kPa	0.05557	–
2980 kPa	0.05557	–
2985 kPa	0.05595	–
2990 kPa	0.05595	–
2995 kPa	0.05651	–
3000 kPa	0.0569	–
3005 kPa	0.05749	–
3010 kPa	0.05788	–
3015 kPa	0.05829	–
3020 kPa	0.05869	–
3025 kPa	0.05975	–
3030 kPa	0.05975	–
3035 kPa	0.05975	–
3040 kPa	0.06085	–
3045 kPa	0.0613	–
3050 kPa	0.0618	–
3055 kPa	0.06256	–
3060 kPa	0.06305	–
3065 kPa	0.06429	–
3070 kPa	0.06507	–
3080 kPa	0.06696	–
3085 kPa	0.06809	–
3090 kPa	0.06955	–
3095 kPa	0.07139	–
3100 kPa	0.07333	–
3105 kPa	0.07573	–
3110 kPa	0.07753	0.06796
3112 kPa	–	0.06824
3114 kPa	–	0.06881
3115 kPa	0.08101	–
3116 kPa	–	0.06939
3118 kPa	–	0.07027
3120 kPa	0.08569	0.07087
3122 kPa	–	0.07148
3124 kPa	–	0.07242
3125 kPa	0.08932	–
3126 kPa	–	0.07338
3128 kPa	–	0.07403
3130 kPa	0.09098	0.0747
3132 kPa	–	0.07538
3133 kPa	–	0.07607
3134 kPa	–	0.07624
3135 kPa	0.09203	–
3137 kPa	–	0.0784
3138 kPa	–	0.07915
3139 kPa	–	0.07991
3140 kPa	0.08826	0.08056
3141 kPa	–	0.08119
3142 kPa	–	0.08199
3143 kPa	–	0.08268
3144 kPa	–	0.0833
3145 kPa	0.08512	0.08393
3146 kPa	–	0.08457
3147 kPa	–	0.08501
3148 kPa	–	0.08552
3150 kPa	0.0829	0.08631
3151 kPa	–	0.08656
3152 kPa	–	0.08673
3153 kPa	–	0.08695
3154 kPa	–	0.08709
3155 kPa	0.08149	0.087
3156 kPa	–	0.08691
3157 kPa	–	0.08682
3158 kPa	–	0.08656
3159 kPa	–	0.08634
3160 kPa	0.07984	0.08604
3161 kPa	–	0.08582
3162 kPa	–	0.08548
3163 kPa	–	0.08518
3164 kPa	–	0.08476
3166 kPa	–	0.08393
3168 kPa	–	0.0832
3170 kPa	0.07755	0.08248
3172 kPa	–	0.08173
3174 kPa	–	0.08088
3176 kPa	–	0.08019
3178 kPa	–	0.07941
3180 kPa	0.07646	0.07883
3182 kPa	–	0.07826
3184 kPa	–	0.07767
3186 kPa	–	0.07716
3188 kPa	–	0.07654
3190 kPa	0.07505	0.076
3192 kPa	–	0.07563
3194 kPa	–	0.07525
3196 kPa	–	0.07489
3198 kPa	–	0.07452
3200 kPa	0.07436	0.07416
3202 kPa	–	0.0738
3204 kPa	–	0.07362
3206 kPa	–	0.07337
3208 kPa	–	0.07309
3210 kPa	0.07368	0.07292
3212 kPa	–	0.07274
3214 kPa	–	0.0724
3216 kPa	–	0.0724
3218 kPa	–	0.07206
3220 kPa	0.07319	0.07206
3222 kPa	–	0.07189
3225 kPa	–	0.07175
3228 kPa	–	0.07155
3230 kPa	0.07264	–
3240 kPa	0.07251	–
3250 kPa	0.07211	–
3260 kPa	0.07181	–
3270 kPa	0.07177	–
3280 kPa	0.07145	–
3290 kPa	0.07134	–
3300 kPa	0.07091	–
3310 kPa	0.07096	–
3320 kPa	0.07054	–
3330 kPa	0.07035	–
3340 kPa	0.06992	–
3390 kPa	0.06989	–
3400 kPa	0.06989	–
3450 kPa	0.06947	–
3500 kPa	0.06961	–
3600 kPa	0.06975	–
3800 kPa	0.07031	–
4000 kPa	0.07061	–
4200 kPa	0.07105	–
4400 kPa	0.07134	–
4600 kPa	0.07179	–
4800 kPa	0.07215	–
5000 kPa	0.07254	–
5200 kPa	0.07285	–
5400 kPa	0.07315	–
5600 kPa	0.07355	–
5800 kPa	0.07393	–
6000 kPa	0.07421	–
6200 kPa	0.07453	–
6400 kPa	0.07484	–
6600 kPa	0.07514	–
6800 kPa	0.07543	–
7000 kPa	0.0757	–
7200 kPa	0.07596	–
7400 kPa	0.07619	–
7600 kPa	0.07646	–
7800 kPa	0.07673	–
8000 kPa	0.07679	–
8200 kPa	0.07703	–
8500 kPa	0.07741	–
9000 kPa	0.07802	–
9500 kPa	0.07856	–
10000 kPa	0.0791	–
